Reference: patent publication US20240058352A1, “COMBINATION THERAPIES FOR THE TREATMENT OF CANCER” (Erasca, Inc., priority 2020, published 2024)

System: cell viability
Assay: Cellular proliferation assay (percent CTG activity, FIG. 23C)
Format: cell-based
Conditions: agent alone, cell line not stated

COCOC[C@H]1C[C@H]2COc3c(Sc4cnc(N5CCC6(CC5)CO[C@@H](C)[C@H]6N)c(CO)n4)ccnc3N2C1 [compound of Formula I]
percent CTG activity (cell viability), single agent: minimal effect on cell viability
